Reference: ChEMBL document CHEMBL4507283, “Data for DCP probe BI-1935” (2021)

Legend:
[1] = molecular target: Acetylcholinesterase (Homo sapiens) (UniProt P22303); experiment: ACHOLINEST Eurofins-Panlabs selectivity data (BI); details: Compound concentration 10.0 uM
[2] = molecular target: Type-1 angiotensin II receptor (Oryctolagus cuniculus) (UniProt P34976); experiment: AT1 Eurofins-Panlabs selectivity data (BI); details: Homo sapiens; Compound concentration 10.0 uM
[3] = molecular target: B2 bradykinin receptor (Homo sapiens) (UniProt P30411); experiment: B2/HU Eurofins-Panlabs selectivity data (BI); details: Compound concentration 10.0 uM
[4] = molecular target: D(1A) dopamine receptor (Homo sapiens) (UniProt P21728); experiment: D1/HU Eurofins-Panlabs selectivity data (BI); details: Compound concentration 10.0 uM
[5] = molecular target: Calpain-1 catalytic subunit (Homo sapiens) (UniProt P07384); experiment: MU-CALPAIN Eurofins-Panlabs selectivity data (BI); details: Compound concentration 10.0 uM
[6] = molecular target: Opioid receptor (Rattus norvegicus) (UniProt P33533+P34975+P33535); experiment: OPIAT/NS Eurofins-Panlabs selectivity data (BI); assay type: protein assay; details: Compound concentration 10.0 uM
[7] = system: Tyrosine-protein kinase ABL1 (Homo sapiens), P00519 [F317L]; details: Compound concentration 1000.0 nM
[8] = molecular target: Mitogen-activated protein kinase kinase kinase 5 (Homo sapiens) (UniProt Q99683); details: Compound concentration 1000.0 nM
[9] = molecular target: Cyclin-dependent kinase 4 (Homo sapiens) (UniProt P11802); details: Compound concentration 1000.0 nM
[10] = molecular target: Cyclin-dependent kinase 7 (Homo sapiens) (UniProt P50613); details: Compound concentration 1000.0 nM
[11] = molecular target: Serine/threonine-protein kinase Chk1 (Homo sapiens) (UniProt O14757); details: Compound concentration 1000.0 nM
[12] = molecular target: Death-associated protein kinase 3 (Homo sapiens) (UniProt O43293); details: Compound concentration 1000.0 nM
[13] = molecular target: Serine/threonine-protein kinase DCLK1 (Homo sapiens) (UniProt O15075); details: Compound concentration 1000.0 nM
[14] = molecular target: Serine/threonine-protein kinase 17B (Homo sapiens) (UniProt O94768); details: Compound concentration 1000.0 nM
[15] = molecular target: Dual specificity tyrosine-phosphorylation-regulated kinase 1A (Homo sapiens) (UniProt Q13627); details: Compound concentration 1000.0 nM
[16] = molecular target: Dual specificity tyrosine-phosphorylation-regulated kinase 1B (Homo sapiens) (UniProt Q9Y463); details: Compound concentration 1000.0 nM
[17] = system: Epidermal growth factor receptor (Homo sapiens), P00533 [G719C]; details: Compound concentration 1000.0 nM
[18] = system: Epidermal growth factor receptor (Homo sapiens), P00533 [UNDEFINED MUTATION]; details: Compound concentration 1000.0 nM
[19] = molecular target: G protein-coupled receptor kinase 3 (Homo sapiens) (UniProt P35626); details: Compound concentration 1000.0 nM
[20] = molecular target: Inhibitor of nuclear factor kappa-B kinase subunit alpha (Homo sapiens) (UniProt O15111); details: Compound concentration 1000.0 nM
[21] = molecular target: Insulin receptor (Homo sapiens) (UniProt P06213); details: Compound concentration 1000.0 nM
[22] = molecular target: Mitogen-activated protein kinase 8 (Homo sapiens) (UniProt P45983); details: Compound concentration 1000.0 nM
[23] = system: Mast/stem cell growth factor receptor Kit (Homo sapiens), P10721 [D816H]; details: Compound concentration 1000.0 nM
[24] = molecular target: Tyrosine-protein kinase Mer (Homo sapiens) (UniProt Q12866); details: Compound concentration 1000.0 nM
[25] = molecular target: Serine/threonine-protein kinase mTOR (Homo sapiens) (UniProt P42345); details: Compound concentration 1000.0 nM
[26] = molecular target: Serine/threonine-protein kinase Nek2 (Homo sapiens) (UniProt P51955); details: Compound concentration 1000.0 nM
[27] = molecular target: Serine/threonine-protein kinase Nek5 (Homo sapiens) (UniProt Q6P3R8); details: Compound concentration 1000.0 nM
[28] = molecular target: Serine/threonine-protein kinase Nek7 (Homo sapiens) (UniProt Q8TDX7); details: Compound concentration 1000.0 nM
[29] = molecular target: Serine/threonine-protein kinase NIM1 (Homo sapiens) (UniProt Q8IY84); details: Compound concentration 1000.0 nM
[30] = molecular target: Mitogen-activated protein kinase 14 (Homo sapiens) (UniProt Q16539); details: Compound concentration 1000.0 nM
[31] = molecular target: Platelet-derived growth factor receptor beta (Homo sapiens) (UniProt P09619); details: Compound concentration 1000.0 nM
[32] = system: Phosphatidylinositol 4,5-bisphosphate 3-kinase catalytic subunit alpha isoform (Homo sapiens), P42336 [E542K]; details: Compound concentration 1000.0 nM
[33] = molecular target: Serine/threonine-protein kinase pim-1 (Homo sapiens) (UniProt P11309); details: Compound concentration 1000.0 nM
[34] = molecular target: cAMP-dependent protein kinase catalytic subunit alpha (Homo sapiens) (UniProt P17612); details: Compound concentration 1000.0 nM
[35] = molecular target: Serine/threonine-protein kinase N1 (Homo sapiens) (UniProt Q16512); details: Compound concentration 1000.0 nM
[36] = molecular target: Serine/threonine-protein kinase D1 (Homo sapiens) (UniProt Q15139); details: Compound concentration 1000.0 nM
[37] = molecular target: Interferon-induced, double-stranded RNA-activated protein kinase (Homo sapiens) (UniProt P19525); details: Compound concentration 1000.0 nM
[38] = system: Proto-oncogene tyrosine-protein kinase receptor Ret (Homo sapiens), P07949 [V804L]; details: Compound concentration 1000.0 nM
[39] = molecular target: Ribosomal protein S6 kinase alpha-1 (Homo sapiens) (UniProt Q15418); details: Compound concentration 1000.0 nM
[40] = molecular target: Serine/threonine-protein kinase Sgk3 (Homo sapiens) (UniProt Q96BR1); details: Compound concentration 1000.0 nM
[41] = molecular target: Serine/threonine-protein kinase TAO2 (Homo sapiens) (UniProt Q9UL54); details: Compound concentration 1000.0 nM
[42] = molecular target: Serine/threonine-protein kinase WNK3 (Homo sapiens) (UniProt Q9BYP7); details: Compound concentration 1000.0 nM
[43] = molecular target: Serine/threonine-protein kinase WNK4 (Homo sapiens) (UniProt Q96J92); details: Compound concentration 1000.0 nM
[44] = molecular target: 5-hydroxytryptamine receptor 2C (Homo sapiens) (UniProt P28335); details: Compound concentration 10.0 uM
[45] = molecular target: Kappa-type opioid receptor (Homo sapiens) (UniProt P41145); details: Compound concentration 10.0 uM

Chain of Type-1 angiotensin II receptor (Oryctolagus cuniculus) (P34976 whole entry): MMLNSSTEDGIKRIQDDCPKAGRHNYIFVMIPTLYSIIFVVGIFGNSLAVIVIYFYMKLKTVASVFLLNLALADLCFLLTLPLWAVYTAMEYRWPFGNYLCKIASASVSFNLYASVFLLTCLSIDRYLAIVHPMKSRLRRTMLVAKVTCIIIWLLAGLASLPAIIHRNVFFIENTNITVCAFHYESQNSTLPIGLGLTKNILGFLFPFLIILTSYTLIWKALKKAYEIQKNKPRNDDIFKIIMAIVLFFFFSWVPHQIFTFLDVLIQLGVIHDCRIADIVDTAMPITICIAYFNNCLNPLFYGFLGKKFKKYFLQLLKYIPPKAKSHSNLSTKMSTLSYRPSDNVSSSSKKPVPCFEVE
Chain of Mitogen-activated protein kinase 8 (Homo sapiens) (P45983 whole entry): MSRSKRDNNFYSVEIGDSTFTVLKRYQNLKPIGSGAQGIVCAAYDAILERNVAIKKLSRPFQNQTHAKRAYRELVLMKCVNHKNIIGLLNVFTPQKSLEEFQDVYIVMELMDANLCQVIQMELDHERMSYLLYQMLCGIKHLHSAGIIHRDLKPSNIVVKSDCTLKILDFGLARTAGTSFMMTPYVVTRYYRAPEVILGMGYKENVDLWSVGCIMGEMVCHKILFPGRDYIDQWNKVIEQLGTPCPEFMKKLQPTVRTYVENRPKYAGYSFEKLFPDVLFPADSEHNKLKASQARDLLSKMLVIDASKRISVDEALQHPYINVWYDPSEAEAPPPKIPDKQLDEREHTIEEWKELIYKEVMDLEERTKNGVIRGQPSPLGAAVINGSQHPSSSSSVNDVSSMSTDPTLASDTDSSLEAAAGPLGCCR
Chain of Serine/threonine-protein kinase Chk1 (Homo sapiens) (O14757 whole entry): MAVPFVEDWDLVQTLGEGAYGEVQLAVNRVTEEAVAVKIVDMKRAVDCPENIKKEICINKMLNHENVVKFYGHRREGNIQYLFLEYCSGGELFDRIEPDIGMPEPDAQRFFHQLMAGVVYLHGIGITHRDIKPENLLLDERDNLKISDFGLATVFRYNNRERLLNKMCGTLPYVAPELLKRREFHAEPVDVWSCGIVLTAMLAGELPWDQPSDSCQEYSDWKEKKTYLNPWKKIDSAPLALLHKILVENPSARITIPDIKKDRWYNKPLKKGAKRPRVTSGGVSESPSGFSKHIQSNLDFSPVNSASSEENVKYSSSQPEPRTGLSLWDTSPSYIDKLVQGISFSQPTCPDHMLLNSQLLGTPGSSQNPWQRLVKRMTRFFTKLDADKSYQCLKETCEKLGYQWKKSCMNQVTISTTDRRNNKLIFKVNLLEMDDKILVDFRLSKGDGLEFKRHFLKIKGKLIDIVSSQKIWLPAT
Chain of Mitogen-activated protein kinase kinase kinase 5 (Homo sapiens) (Q99683 whole entry): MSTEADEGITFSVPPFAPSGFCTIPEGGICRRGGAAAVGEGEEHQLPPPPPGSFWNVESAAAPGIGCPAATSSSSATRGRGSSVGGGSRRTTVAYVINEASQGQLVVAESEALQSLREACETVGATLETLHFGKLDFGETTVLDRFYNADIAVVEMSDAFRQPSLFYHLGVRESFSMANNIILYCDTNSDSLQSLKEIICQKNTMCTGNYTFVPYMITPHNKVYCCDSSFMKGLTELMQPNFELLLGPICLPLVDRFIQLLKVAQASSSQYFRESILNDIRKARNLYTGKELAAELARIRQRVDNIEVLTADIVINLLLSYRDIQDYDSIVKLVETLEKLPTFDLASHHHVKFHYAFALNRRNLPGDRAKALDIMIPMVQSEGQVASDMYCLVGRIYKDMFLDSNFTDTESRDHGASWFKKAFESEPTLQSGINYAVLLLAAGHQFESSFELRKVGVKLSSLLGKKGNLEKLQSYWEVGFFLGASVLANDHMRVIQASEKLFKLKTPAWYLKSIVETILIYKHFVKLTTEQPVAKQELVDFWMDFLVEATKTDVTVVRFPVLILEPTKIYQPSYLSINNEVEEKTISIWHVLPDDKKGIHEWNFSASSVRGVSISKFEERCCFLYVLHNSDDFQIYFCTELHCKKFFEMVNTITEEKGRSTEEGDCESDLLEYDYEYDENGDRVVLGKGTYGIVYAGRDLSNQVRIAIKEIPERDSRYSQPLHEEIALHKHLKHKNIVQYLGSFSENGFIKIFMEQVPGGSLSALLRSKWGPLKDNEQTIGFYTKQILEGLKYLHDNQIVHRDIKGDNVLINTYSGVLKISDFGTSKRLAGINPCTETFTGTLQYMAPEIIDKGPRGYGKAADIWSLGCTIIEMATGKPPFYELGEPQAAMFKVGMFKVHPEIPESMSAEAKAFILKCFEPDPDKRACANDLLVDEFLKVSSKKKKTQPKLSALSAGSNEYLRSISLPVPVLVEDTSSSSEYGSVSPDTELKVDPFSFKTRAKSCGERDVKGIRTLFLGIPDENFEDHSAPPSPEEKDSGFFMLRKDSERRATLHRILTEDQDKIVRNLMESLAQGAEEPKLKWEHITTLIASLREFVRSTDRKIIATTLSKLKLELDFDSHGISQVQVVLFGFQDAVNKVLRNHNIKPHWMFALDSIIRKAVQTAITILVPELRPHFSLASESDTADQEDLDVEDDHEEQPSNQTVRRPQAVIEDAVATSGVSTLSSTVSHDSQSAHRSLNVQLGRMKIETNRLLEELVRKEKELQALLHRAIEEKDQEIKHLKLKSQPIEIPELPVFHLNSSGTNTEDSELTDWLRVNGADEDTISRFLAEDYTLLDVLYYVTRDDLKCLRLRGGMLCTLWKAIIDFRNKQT
Chain of 5-hydroxytryptamine receptor 2C (Homo sapiens) (P28335 whole entry): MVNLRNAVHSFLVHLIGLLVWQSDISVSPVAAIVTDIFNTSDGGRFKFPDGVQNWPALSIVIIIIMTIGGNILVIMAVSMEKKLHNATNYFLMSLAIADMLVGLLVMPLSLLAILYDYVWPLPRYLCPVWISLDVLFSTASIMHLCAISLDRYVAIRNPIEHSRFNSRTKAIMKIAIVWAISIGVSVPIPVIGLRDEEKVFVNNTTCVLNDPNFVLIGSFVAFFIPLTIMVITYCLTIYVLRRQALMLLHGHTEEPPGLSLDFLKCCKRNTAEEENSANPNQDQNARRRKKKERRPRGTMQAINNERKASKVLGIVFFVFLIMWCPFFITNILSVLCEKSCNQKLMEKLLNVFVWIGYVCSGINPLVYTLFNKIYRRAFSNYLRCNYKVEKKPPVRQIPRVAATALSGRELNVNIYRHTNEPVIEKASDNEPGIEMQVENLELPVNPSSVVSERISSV
Chain of Serine/threonine-protein kinase Nek2 (Homo sapiens) (P51955 whole entry): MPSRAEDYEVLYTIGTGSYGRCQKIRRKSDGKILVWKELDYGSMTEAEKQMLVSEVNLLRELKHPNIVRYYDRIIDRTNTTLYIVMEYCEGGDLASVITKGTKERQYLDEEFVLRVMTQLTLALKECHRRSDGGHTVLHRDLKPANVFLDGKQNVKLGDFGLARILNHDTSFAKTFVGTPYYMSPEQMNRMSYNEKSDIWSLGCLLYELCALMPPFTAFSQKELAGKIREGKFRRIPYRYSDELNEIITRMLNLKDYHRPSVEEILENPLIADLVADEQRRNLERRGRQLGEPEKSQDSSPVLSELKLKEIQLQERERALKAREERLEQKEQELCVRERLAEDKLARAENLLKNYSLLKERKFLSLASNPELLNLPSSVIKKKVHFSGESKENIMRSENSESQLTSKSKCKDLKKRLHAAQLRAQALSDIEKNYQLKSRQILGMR
Chain of Tyrosine-protein kinase ABL1 (Homo sapiens), P00519 [F317L] (P00519 whole entry F317L): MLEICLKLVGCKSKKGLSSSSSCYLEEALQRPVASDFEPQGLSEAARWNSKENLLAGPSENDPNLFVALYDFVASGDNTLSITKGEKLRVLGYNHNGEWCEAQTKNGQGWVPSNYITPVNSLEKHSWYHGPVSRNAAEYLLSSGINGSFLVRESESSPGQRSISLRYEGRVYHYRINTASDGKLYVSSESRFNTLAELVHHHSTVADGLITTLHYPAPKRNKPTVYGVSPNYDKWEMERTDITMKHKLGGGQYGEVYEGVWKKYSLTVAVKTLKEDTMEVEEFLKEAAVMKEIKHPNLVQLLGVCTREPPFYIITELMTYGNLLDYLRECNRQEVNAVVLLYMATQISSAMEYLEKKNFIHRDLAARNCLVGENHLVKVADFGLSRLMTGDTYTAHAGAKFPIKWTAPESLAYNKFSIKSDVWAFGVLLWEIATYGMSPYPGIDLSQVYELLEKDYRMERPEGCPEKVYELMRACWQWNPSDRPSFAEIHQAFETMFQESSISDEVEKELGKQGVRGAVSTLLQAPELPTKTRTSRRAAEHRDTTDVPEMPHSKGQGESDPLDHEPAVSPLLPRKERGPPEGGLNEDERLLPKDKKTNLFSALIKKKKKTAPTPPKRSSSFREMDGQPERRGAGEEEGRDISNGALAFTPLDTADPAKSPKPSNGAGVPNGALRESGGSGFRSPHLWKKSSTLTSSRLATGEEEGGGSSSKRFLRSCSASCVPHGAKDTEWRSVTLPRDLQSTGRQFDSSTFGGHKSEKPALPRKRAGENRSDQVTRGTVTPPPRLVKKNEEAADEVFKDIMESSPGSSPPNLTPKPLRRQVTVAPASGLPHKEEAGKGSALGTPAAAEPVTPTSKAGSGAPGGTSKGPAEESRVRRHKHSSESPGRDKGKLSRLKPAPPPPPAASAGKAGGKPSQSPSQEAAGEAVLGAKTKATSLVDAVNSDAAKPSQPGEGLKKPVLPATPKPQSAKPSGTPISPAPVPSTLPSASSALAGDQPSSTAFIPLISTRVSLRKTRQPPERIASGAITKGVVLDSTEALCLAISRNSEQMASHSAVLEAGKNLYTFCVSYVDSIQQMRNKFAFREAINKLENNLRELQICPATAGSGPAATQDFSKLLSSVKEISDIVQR
Chain of Serine/threonine-protein kinase 17B (Homo sapiens) (O94768 whole entry): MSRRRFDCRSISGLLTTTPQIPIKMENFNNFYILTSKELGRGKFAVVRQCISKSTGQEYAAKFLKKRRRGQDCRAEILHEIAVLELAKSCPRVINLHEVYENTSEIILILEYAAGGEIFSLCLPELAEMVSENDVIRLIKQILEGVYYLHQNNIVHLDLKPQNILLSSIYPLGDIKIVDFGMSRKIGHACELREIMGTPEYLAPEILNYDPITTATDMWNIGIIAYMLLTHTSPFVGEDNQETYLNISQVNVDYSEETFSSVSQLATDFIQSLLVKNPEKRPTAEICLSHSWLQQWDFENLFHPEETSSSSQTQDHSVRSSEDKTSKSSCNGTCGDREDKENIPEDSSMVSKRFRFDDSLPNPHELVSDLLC

Q: Which residual activity [1] does the source give for `CCOCCn1cc(C(=O)Nc2ccc(-n3nc(-c4cccnc4)cc3C(F)(F)F)cn2)ccc1=O` [BI 1935] here?
A: Its residual activity is 41%.

Q: And the residual activity [2]?
A: Its residual activity is 93%.

Q: What about the residual activity [3] of the same compound?
A: Its residual activity is 100%.

Q: What about the residual activity [4] of the same compound?
A: Its residual activity is 110%.

Q: What about the residual activity [5] of the same compound?
A: The residual activity was 96%.

Q: And the residual activity [6]?
A: Its residual activity is 99%.

Q: What about the residual activity [7] of the same compound?
A: The residual activity was 100%.

Q: And the residual activity [8]?
A: Its residual activity is 100%.

Q: What about the residual activity [9] of the same compound?
A: The residual activity was 93%.

Q: What about the residual activity [10] of the same compound?
A: The residual activity was 88%.

Q: What about the residual activity [11] of the same compound?
A: Its residual activity is 76%.

Q: And the residual activity [12]?
A: Its residual activity is 91%.

Q: And the residual activity [13]?
A: The residual activity was 83%.

Q: And the residual activity [14]?
A: The residual activity was 81%.

Q: And the residual activity [15]?
A: The residual activity was 77%.

Q: What about the residual activity [16] of the same compound?
A: Its residual activity is 39%.

Q: What about the residual activity [17] of the same compound?
A: The residual activity was 97%.

Q: And the residual activity [18]?
A: Its residual activity is 100%.

Q: And the residual activity [19]?
A: Its residual activity is 76%.

Q: And the residual activity [20]?
A: Its residual activity is 100%.

Q: And the residual activity [21]?
A: The residual activity was 98%.

Q: What about the residual activity [22] of the same compound?
A: Its residual activity is 72%.

Q: What about the residual activity [23] of the same compound?
A: The residual activity was 79%.

Q: And the residual activity [24]?
A: The residual activity was 83%.

Q: And the residual activity [25]?
A: Its residual activity is 100%.

Q: And the residual activity [26]?
A: Its residual activity is 100%.

Q: What about the residual activity [27] of the same compound?
A: Its residual activity is 100%.

Q: And the residual activity [28]?
A: The residual activity was 100%.

Q: What about the residual activity [29] of the same compound?
A: The residual activity was 100%.

Q: And the residual activity [30]?
A: The residual activity was 100%.

Q: What about the residual activity [31] of the same compound?
A: Its residual activity is 88%.

Q: What about the residual activity [32] of the same compound?
A: Its residual activity is 100%.

Q: And the residual activity [33]?
A: The residual activity was 100%.

Q: What about the residual activity [34] of the same compound?
A: Its residual activity is 92%.

Q: What about the residual activity [35] of the same compound?
A: The residual activity was 76%.

Q: What about the residual activity [36] of the same compound?
A: The residual activity was 100%.

Q: And the residual activity [37]?
A: Its residual activity is 100%.

Q: What about the residual activity [38] of the same compound?
A: Its residual activity is 97%.

Q: What about the residual activity [39] of the same compound?
A: Its residual activity is 100%.

Q: What about the residual activity [40] of the same compound?
A: The residual activity was 65%.

Q: What about the residual activity [41] of the same compound?
A: Its residual activity is 75%.

Q: What about the residual activity [42] of the same compound?
A: Its residual activity is 76%.

Q: What about the residual activity [43] of the same compound?
A: The residual activity was 91%.

Q: And the inhibition [44]?
A: Its inhibition is 3.75%.

Q: And the inhibition [45]?
A: Its inhibition is 3.2%.
